The compounds below were run against RORγ ligand binding domain (Homo sapiens (Human), UniProt P51449) (assay: RORγ FRET assay (SRC-1 peptide binding to RORγ ligand binding domain)). Conditions: not given.
Sequence of RORγ ligand binding domain (P51449 258-518): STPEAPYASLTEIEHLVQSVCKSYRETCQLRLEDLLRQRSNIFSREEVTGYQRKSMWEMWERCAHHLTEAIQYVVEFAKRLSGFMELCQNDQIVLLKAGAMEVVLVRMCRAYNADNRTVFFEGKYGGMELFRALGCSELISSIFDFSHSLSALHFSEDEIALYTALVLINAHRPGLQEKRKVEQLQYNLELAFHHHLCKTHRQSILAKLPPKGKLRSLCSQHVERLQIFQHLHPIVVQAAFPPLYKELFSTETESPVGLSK

With `O=C(O)c1ccc(-n2cc(Cc3c(Cl)cccc3C(F)(F)F)c3cccnc32)cc1` [Compound 1, 4-(3-{[2-chloro-6-(trifluoromethyl)phenyl]methyl}-1H-pyrrolo[2,3-b]pyridin-1-yl)benzoic acid] the IC50 was 196 nM.

Same assay, conditions: read-out: RORγ FRET - Mean IC50

Compound `O=C(O)c1ccc(-n2cc(Cc3c(Cl)cccc3C(F)(F)F)c3ccccc32)cc1` [Compound 2, 4-(3-{[2-chloro-6-(trifluoromethyl)phenyl]methyl}-1H-indol-1-yl)benzoic acid] has an IC50 of 71.8 nM.

What follows are compounds tested on Human CD4+CCR6+ T cells (TH17 cell differentiation) (assay: Human Th17 cell differentiation assay (IL-17A in extracellular media by ELISA)). Conditions: 96 h, IL17A in extracellular media by sandwich ELISA, 4 days with cytokine cocktail and antiCD2/CD3/28 beads, read-out: Inhibition of TH17 cell differentiation - Mean IC50.
Format: cell-based

First: Cc1cccc2c(C(=O)c3c(Cl)cccc3Cl)cn(-c3ccc(C(=O)O)cc3)c12 [Compound 9, 4-[3-(2,6-dichlorobenzoyl)-7-methyl-indol-1-yl]benzoic acid]
Second: Cc1cccc2c(C(=O)c3c(Cl)cccc3C(F)(F)F)cn(-c3ccc(C(=O)O)cc3)c12 [Compound 7, 4-[3-[2-chloro-6-(trifluoromethyl)benzoyl]-7-methyl-indol-1-yl]benzoic acid]
The IC50 of the first is 3.2-fold higher: 1600 nM for the first, 498 nM for the second. The second is the more potent here.

`O=C(O)c1ccc(-n2cc(C(=O)c3c(F)cccc3OC(F)(F)F)c3cccc(F)c32)c(F)c1` [Compound 13, 3-fluoro-4-[7-fluoro-3-[2-fluoro-6-(trifluoromethoxy)benzoyl]indol-1-yl]benzoic acid] and `O=C(O)c1ccc(-n2cc(C(=O)c3c(F)cccc3OC(F)(F)F)c3cccc(F)c32)cc1` [Compound 12, 4-[7-fluoro-3-[2-fluoro-6-(trifluoromethoxy)benzoyl]indol-1-yl]benzoic acid] are within 1.5-fold of each other in IC50: 181 nM for the first, 192 nM for the second.

Compared with `O=C(O)c1ccc(-n2cc(C(=O)c3c(F)cccc3OC(F)(F)F)c3ccccc32)cc1` [Compound 14, 4-[3-[2-fluoro-6-(trifluoromethoxy)benzoyl]indol-1-yl]benzoic acid], `COc1cccc(F)c1C(=O)c1cn(-c2ccc(C(=O)O)cc2)c2ccccc12` [Compound 4, 4-[3-(2-fluoro-6-methoxy-benzoyl)indol-1-yl]benzoic acid] is 4.4-fold higher in IC50: 338 nM for the first, 1490 nM for the second. The first is the more potent here.

Compared with `O=C(O)c1ccc(-n2cc(Cc3c(Cl)cccc3C(F)(F)F)c3cccnc32)cc1` [Compound 1, 4-(3-{[2-chloro-6-(trifluoromethyl)phenyl]methyl}-1H-pyrrolo[2,3-b]pyridin-1-yl)benzoic acid], `O=C(O)c1ccc(-n2cc(Cc3c(Cl)cccc3C(F)(F)F)c3ccccc32)cc1O` [Compound 6, 4-[3-[[2-chloro-6-(trifluoromethyl)phenyl]methyl]indol-1-yl]-2-hydroxy-benzoic acid] is 30-fold lower in IC50: 142 nM for the first, 4.81 nM for the second.

Compared with `COc1cccc(F)c1C(=O)c1cn(-c2ccc(C(=O)O)cc2)c2c(F)cccc12` [Compound 5, 4-[7-fluoro-3-(2-fluoro-6-methoxy-benzoyl)indol-1-yl]benzoic acid], `COc1cccc(F)c1C(=O)c1nn(-c2ccc(C(=O)O)cc2)c2ccccc12` [Compound 10, 4-[3-(2-fluoro-6-methoxy-benzoyl)indazol-1-yl]benzoic acid] is 1.8-fold lower in IC50: 821 nM for the first, 455 nM for the second. The second is the more potent here.

`O=C(O)c1ccc(-n2cc(C(=O)c3c(Cl)cccc3C(F)(F)F)c3cccc(F)c32)nc1` [Compound 8, 6-[3-[2-chloro-6-(trifluoromethyl)benzoyl]-7-fluoro-indol-1-yl]pyridine-3-carboxylic acid] showed an IC50 of 39.5 nM.

Same assay, conditions: 96 h, read-out: Inhibition of TH17 cell differentiation - Mean IC50

Going from `O=C(O)c1ccc(-n2cc(Cc3c(Cl)cccc3C(F)(F)F)c3ccccc32)cc1` [Compound 2, 4-(3-{[2-chloro-6-(trifluoromethyl)phenyl]methyl}-1H-indol-1-yl)benzoic acid] to `O=C(O)c1ccc(-n2cc(C(=O)c3c(Cl)cccc3C(F)(F)F)c3cncnc32)cc1` [Compound 3, 4-[5-[2-chloro-6-(trifluoromethyl)benzoyl]pyrrolo[2,3-d]pyrimidin-7-yl]benzoic acid], the IC50 rises from 33.6 nM to 356 nM (11-fold).

From patent US10383850B2, “Indazole and indole derivatives as inhibitors of retinoic acid related orphan receptor gamma (ROR gamma) for the treatment of immune-related diseases” (ORCA PHARMACEUTICALS LIMITED, priority 2014, dated 2019)
